Results published in patent EP3335720A1, “C-DI-GMP BINDING PEPTIDES” (Universität Basel, priority 2016, dated 2018).
Read-outs that look alike come from different tables or passages of the source. Square brackets hold non-standard residues; d marks the D form. Peptide text beside a SMILES is read from it.

Legend:
c-di-GMP = experiment: Binding affinity of peptides to c-di-GMP by isothermal titration calorimetry (ITC); details: for binding affinity to c-di-GMP, in words: compared to the core sequence / peptide of SEQ ID NO: 12; for Kd: 15°C, pH 8.0, read-out: Dissociation constant; for decrease of c-di-GMP binding affinity compared to the peptide of SEQ ID NO: 12: single amino acid deletion
Protocol: Binding affinities of peptides to c-di-GMP were measured using isothermal titration calorimetry (ITC) on a VP-ITC MicroCalorimeter (MicroCal, Northampton, MA, USA). Peptides, c-di-GMP and buffer (50 mM Tris-HCl, pH 8.0, 100 mM NaCl) were degassed for 15 min prior to filling into sample cell and syringe. All experiments were carried out at a temperature of 15°C. The data were evaluated using ITC Data Analysis in ORIGIN provided by the manufacturer.

in vitro = in vitro ADME, P. aeruginosa PAO1; details: for remaining at 2 h: cells or culture medium
Protocol: P. aeruginosa PAO1 lysate, which was used to test peptide stability, was prepared by the following procedure. 500 ml of cells grown overnight at 37°C were harvested by centrifugation at 5000 rpm, 10 min at 4°C. Pellets were resuspended in 60 ml PBS (Gibco) and centrifuged at 5000 rpm, 10 min at 4°C. Pellets were resuspended again in 20 ml PBS and centrifuged at 5000 rpm, 10 min at 4°C. Cells were disrupted using high-pressure cell disrupter (Stansted Fluid Power). Cell lysate was separated from cell debris by centrifugation at 14,000 rpm for 20 min at 4°C. Lysate was diluted 10 fold to yield a protein content of about 1 mg/ml. The lysate was used for all experiments described below.
The stability of peptides was tested against P. aeruginosa PAO1 cell lysate. About 1 to 3 µg of peptides were incubated with 5 µl P. aeruginosa PAO1 cell lysate or PBS (untreated controls) at 37°C. After 2 hours, 6 µl of 2x SDS sample buffer was added to the samples and heated to 95°C for 5 min. Samples were analyzed on 10-20% Mini-PROTEAN tris-tricine gels (BIO-RAD #4563115) according to manufacturer's recommended protocol. Band intensities were quantified using the program ImageJ (Schneider, C. A., Rasband, W. S. and Eliceiri, K. W. 2012. NIH Image to ImageJ: 25 years of image analysis. Nature methods. 9: 671-675).

[1] = Table 3, peptides with amino acid substitution
[2] = Table 4, deletion of single amino acid

Ac-DRRRFNSADYKGPRRRKLD-NH2 [SEQ ID NO: 30, AC-DRRRFNSADYKGPRRRKLD-NH2]
binding affinity to c-di-GMP, in words (c-di-GMP): does not significantly reduce binding affinity

Ac-DRRAFNSADYKGPRRRKAD-NH2 [compound 16]
Kd (c-di-GMP; [1]): 780 nM | remaining at 2 h (in vitro): 35%

Ac-DRRRFNSADYAGPRRRKAD-NH2 [SEQ ID NO: 23, AC-DRRRFNSADYAGPRRRKAD-NH2]
binding affinity to c-di-GMP, in words (c-di-GMP): does not significantly reduce binding affinity

Ac-DRRRFNSADYKGPARRKAD-NH2 [SEQ ID NO: 26, AC-DRRRFNSADYKGPARRKAD-NH2]
binding affinity to c-di-GMP, in words (c-di-GMP): significantly reduced binding affinities

Ac-DRRRFNSADYKAPRRRKAD-NH2 [SEQ ID NO: 24, AC-DRRRFNSADYKAPRRRKAD-NH2]
binding affinity to c-di-GMP, in words (c-di-GMP): significantly reduced binding affinities

Ac-DRRRFNSADYKGPARRKAD-NH2 [compound 26]
Kd (c-di-GMP; [1]): 1830 nM | remaining at 2 h (in vitro): 27%

Ac-DRRFNSADYKGPRRRKAD-NH2 [SEQ ID NO: 32, AC-DRRFNSADYKGPRRRKAD-NH2]
binding affinity to c-di-GMP, in words (c-di-GMP): Affinity decreased further

Ac-DRRRFNSADYKPRRRKAD-NH2 [SEQ ID NO: 38, AC-DRRRFNSADYKPRRRKAD-NH2]
decrease of c-di-GMP binding affinity compared to the peptide of SEQ ID NO: 12 (c-di-GMP): about 12 fold

Ac-DRRRFNSAYKGPRRRKAD-NH2 [compound 37]
Kd (c-di-GMP; [2]): 440 nM

Ac-DRRRFNSADYKGPRRRKAA-NH2 [SEQ ID NO: 31, AC-DRRRFNSADYKGPRRRKAA-NH2]
binding affinity to c-di-GMP, in words (c-di-GMP): significantly reduced binding affinities

Ac-DRRRFNSADAKGPRRRKAD-NH2 [SEQ ID NO: 22, AC-DRRRFNSADAKGPRRRKAD-NH2]
binding affinity to c-di-GMP, in words (c-di-GMP): significantly reduced binding affinities

CC(=O)N[C@H](CCCNC(=N)N)C(=O)N[C@@H](CC(=O)O)C(=O)N[C@@H](CCCNC(=N)N)C(=O)N[C@@H](CCCNC(=N)N)C(=O)N[C@@H](CCCNC(=N)N)C(=O)N[C@@H](Cc1ccccc1)C(=O)N[C@@H](CC(N)=O)C(=O)N[C@@H](CO)C(=O)N[C@@H](C)C(=O)N[C@@H](CC(=O)O)C(=O)N[C@@H](Cc1ccc(O)cc1)C(=O)N[C@@H](CCCCN)C(=O)NCC(=O)N1CCC[C@H]1C(=O)N[C@@H](CCCNC(=N)N)C(=O)N[C@@H](CCCNC(=N)N)C(=O)N[C@@H](CCCNC(=N)N)C(=O)N[C@@H](CCCCN)C(=O)N[C@@H](C)C(=O)N[C@@H](CC(=O)O)C(=O)N[C@H](C)C(N)=O [compound 41] (Ac-[dR]DRRRFNSADYKGPRRRKAD[dA]-NH2)
remaining at 2 h (in vitro): 19%

Ac-DRRRFNSADYKGPRARKAD-NH2 [SEQ ID NO: 27, AC-DRRRFNSADYKGPRARKAD-NH2]
binding affinity to c-di-GMP, in words (c-di-GMP): significantly reduced binding affinities

Ac-DRRRFNSLDYKGPRRRKAD-NH2 [SEQ ID NO: 20, AC-DRRRFNSLDYKGPRRRKAD-NH2]
binding affinity to c-di-GMP, in words (c-di-GMP): does not significantly reduce binding affinity

Ac-DARRFNSADYKGPRRRKAD-NH2 [SEQ ID NO: 14, AC-DARRFNSADYKGPRRRKAD-NH2]
binding affinity to c-di-GMP, in words (c-di-GMP): significantly reduced binding affinities

Ac-DRRRANSADYKGPRRRKAD-NH2 [compound 17]
Kd (c-di-GMP; [1]): 140 nM

Ac-DRRRFNAADYKGPRRRKAD-NH2 [SEQ ID NO: 19, AC-DRRRFNAADYKGPRRRKAD-NH2]
binding affinity to c-di-GMP, in words (c-di-GMP): does not significantly reduce binding affinity

Ac-DRRRFNADYKGPRRRKAD-NH2 [compound 35]
Kd (c-di-GMP; [2]): 440 nM

Ac-DRRRFNADYKGPRRRKAD-NH2 [SEQ ID NO: 35, AC-DRRRFNADYKGPRRRKAD-NH2]
decrease of c-di-GMP binding affinity compared to the peptide of SEQ ID NO: 12 (c-di-GMP): 2 to 3 fold

Ac-DRRRFNSADYKGARRRKAD-NH2 [SEQ ID NO: 25, AC-DRRRFNSADYKGARRRKAD-NH2]
binding affinity to c-di-GMP, in words (c-di-GMP): sufficiently high to bind c-di-GMP

C[C@H](NC(=O)[C@H](CO)NC(=O)[C@H](CC(N)=O)NC(=O)[C@H](Cc1ccccc1)NC(=O)[C@H](CCCNC(=N)N)NC(=O)[C@H](CCCNC(=N)N)NC(=O)[C@H](CCCNC(=N)N)NC(=O)[C@H](CC(=O)O)NC(=O)[C@H](N)CCCNC(=N)N)C(=O)N[C@@H](CC(=O)O)C(=O)N[C@@H](Cc1ccc(O)cc1)C(=O)N[C@@H](CCCCN)C(=O)NCC(=O)N1CCC[C@H]1C(=O)N[C@@H](CCCNC(=N)N)C(=O)N[C@@H](CCCNC(=N)N)C(=O)N[C@@H](CCCNC(=N)N)C(=O)N[C@@H](CCCCN)C(=O)N[C@@H](C)C(=O)N[C@@H](CC(=O)O)C(=O)N[C@H](C)C(N)=O [compound 42] (H-[dR]DRRRFNSADYKGPRRRKAD[dA]-NH2)
remaining at 2 h (in vitro): 38%

Ac-DRRFNSADYKGPRRRKAD-NH2 [compound 32]
Kd (c-di-GMP; [2]): 1040 nM

Ac-DRRRFNSADYKPRRRKAD-NH2 [compound 38]
Kd (c-di-GMP; [2]): 1950 nM

C[C@H](NC(=O)[C@H](CO)NC(=O)[C@H](CC(N)=O)NC(=O)[C@H](Cc1ccccc1)NC(=O)[C@H](CCCNC(=N)N)NC(=O)[C@H](CCCNC(=N)N)NC(=O)[C@H](CCCNC(=N)N)NC(=O)[C@H](N)CC(=O)O)C(=O)N[C@@H](CC(=O)O)C(=O)N[C@@H](Cc1ccc(O)cc1)C(=O)N[C@@H](CCCCN)C(=O)NCC(=O)N1CCC[C@H]1C(=O)N[C@@H](CCCNC(=N)N)C(=O)N[C@@H](CCCNC(=N)N)C(=O)N[C@@H](CCCNC(=N)N)C(=O)N[C@@H](CCCCN)C(=O)N[C@@H](C)C(=O)N[C@H](CC(=O)O)C(=O)O [compound 39] (H-[dD]RRRFNSADYKGPRRRKA[dD]-OH)
remaining at 2 h (in vitro): 19%

Ac-DRRRFNSDYKGPRRRKAD-NH2 [compound 36]
Kd (c-di-GMP; [2]): 340 nM

Ac-DRRRNSADYKGPRRRKAD-NH2 [compound 33]
Kd (c-di-GMP; [2]): 1270 nM

Ac-DRRRFNSAYKGPRRRKAD-NH2 [SEQ ID NO: 37, AC-DRRRFNSAYKGPRRRKAD-NH2]
decrease of c-di-GMP binding affinity compared to the peptide of SEQ ID NO: 12 (c-di-GMP): 2 to 3 fold

Ac-ARRRFNSADYKGPRRRKAD-NH2 [SEQ ID NO: 13, AC-ARRRFNSADYKGPRRRKAD-NH2]
binding affinity to c-di-GMP, in words (c-di-GMP): significantly reduced binding affinities

Ac-DRRRFSADYKGPRRRKAD-NH2 [SEQ ID NO: 34, AC-DRRRFSADYKGPRRRKAD-NH2]
binding affinity to c-di-GMP, in words (c-di-GMP): Affinity decreased further

Ac-DRRRNSADYKGPRRRKAD-NH2 [SEQ ID NO: 33, AC-DRRRNSADYKGPRRRKAD-NH2]
binding affinity to c-di-GMP, in words (c-di-GMP): Affinity decreased further

Ac-DRRAFNSADYKGPRRRKAD-NH2 [SEQ ID NO: 16, AC-DRRAFNSADYKGPRRRKAD-NH2]
binding affinity to c-di-GMP, in words (c-di-GMP): sufficiently high to bind c-di-GMP

Ac-DRARFNSADYKGPRRRKAD-NH2 [SEQ ID NO: 15, AC-DRARFNSADYKGPRRRKAD-NH2]
binding affinity to c-di-GMP, in words (c-di-GMP): significantly reduced binding affinities

Ac-DRRRFASADYKGPRRRKAD-NH2 [SEQ ID NO: 18, AC-DRRRFASADYKGPRRRKAD-NH2]
binding affinity to c-di-GMP, in words (c-di-GMP): does not significantly reduce binding affinity

Ac-DRRRFSADYKGPRRRKAD-NH2 [compound 34]
Kd (c-di-GMP; [2]): 1250 nM

C[C@H](NC(=O)[C@H](CO)NC(=O)[C@H](CC(N)=O)NC(=O)[C@H](Cc1ccccc1)NC(=O)[C@H](CCCNC(=N)N)NC(=O)[C@H](CCCNC(=N)N)NC(=O)[C@H](CCCNC(=N)N)NC(=O)[C@H](CC(=O)O)NC(=O)[C@H](N)CCCNC(=N)N)C(=O)N[C@@H](CC(=O)O)C(=O)N[C@@H](Cc1ccc(O)cc1)C(=O)N[C@@H](CCCCN)C(=O)NCC(=O)N1CCC[C@H]1C(=O)N[C@@H](CCCNC(=N)N)C(=O)N[C@@H](CCCNC(=N)N)C(=O)N[C@@H](CCCNC(=N)N)C(=O)N[C@@H](CCCCN)C(=O)N[C@@H](C)C(=O)N[C@@H](CC(=O)O)C(=O)N[C@H](C)C(N)=O [SEQ ID NO: 42, rDRRRFNSADYKGPRRRKADa-NH2] (H-[dR]DRRRFNSADYKGPRRRKAD[dA]-NH2)
Remaining peptide after 2 hours (in vitro): significant improvement

C[C@H](NC(=O)[C@H](CO)NC(=O)[C@H](CC(N)=O)NC(=O)[C@H](Cc1ccccc1)NC(=O)[C@H](CCCNC(=N)N)NC(=O)[C@H](CCCNC(=N)N)NC(=O)[C@H](CCCNC(=N)N)NC(=O)[C@H](CC(=O)O)NC(=O)[C@H](N)CCCNC(=N)N)C(=O)N[C@@H](CC(=O)O)C(=O)N[C@@H](Cc1ccc(O)cc1)C(=O)N[C@@H](CCCCN)C(=O)NCC(=O)N1CCC[C@H]1C(=O)N[C@@H](CCCNC(=N)N)C(=O)N[C@@H](CCCNC(=N)N)C(=O)N[C@@H](CCCNC(=N)N)C(=O)N[C@@H](CCCCN)C(=O)N[C@@H](C)C(=O)N[C@@H](CC(=O)O)C(=O)N[C@H](C)C(=O)O [compound 40] (H-[dR]DRRRFNSADYKGPRRRKAD[dA]-OH)
remaining at 2 h (in vitro): 15%

Ac-DRRRFNSDYKGPRRRKAD-NH2 [SEQ ID NO: 36, AC-DRRRFNSDYKGPRRRKAD-NH2]
decrease of c-di-GMP binding affinity compared to the peptide of SEQ ID NO: 12 (c-di-GMP): 2 to 3 fold

Ac-DRRRFNSADYKGPRRRAAD-NH2 [SEQ ID NO: 29, AC-DRRRFNSADYKGPRRRAAD-NH2]
binding affinity to c-di-GMP, in words (c-di-GMP): does not significantly reduce binding affinity

Ac-DRRRFNSAAYKGPRRRKAD-NH2 [SEQ ID NO: 21, AC-DRRRFNSAAYKGPRRRKAD-NH2]
binding affinity to c-di-GMP, in words (c-di-GMP): does not significantly reduce binding affinity
